The values that follow come from ChEMBL document CHEMBL4706599, “Discovery of novel quinazoline derivatives as potent PI3Kδ inhibitors with high selectivity” (Eur J Med Chem, 2020).

Data set [1] deals with Ramos. Nature of the data set: Antiproliferative activity against human Ramos cells assessed as inhibition of cell growth after 48 hrs by MTT assay. Format: functional, cell-based.
Data set [2] deals with T1, Phosphatidylinositol 4,5-bisphosphate 3-kinase catalytic subunit delta isoform (Homo sapiens, UniProt O00329).
T1 sequence (O00329 whole entry): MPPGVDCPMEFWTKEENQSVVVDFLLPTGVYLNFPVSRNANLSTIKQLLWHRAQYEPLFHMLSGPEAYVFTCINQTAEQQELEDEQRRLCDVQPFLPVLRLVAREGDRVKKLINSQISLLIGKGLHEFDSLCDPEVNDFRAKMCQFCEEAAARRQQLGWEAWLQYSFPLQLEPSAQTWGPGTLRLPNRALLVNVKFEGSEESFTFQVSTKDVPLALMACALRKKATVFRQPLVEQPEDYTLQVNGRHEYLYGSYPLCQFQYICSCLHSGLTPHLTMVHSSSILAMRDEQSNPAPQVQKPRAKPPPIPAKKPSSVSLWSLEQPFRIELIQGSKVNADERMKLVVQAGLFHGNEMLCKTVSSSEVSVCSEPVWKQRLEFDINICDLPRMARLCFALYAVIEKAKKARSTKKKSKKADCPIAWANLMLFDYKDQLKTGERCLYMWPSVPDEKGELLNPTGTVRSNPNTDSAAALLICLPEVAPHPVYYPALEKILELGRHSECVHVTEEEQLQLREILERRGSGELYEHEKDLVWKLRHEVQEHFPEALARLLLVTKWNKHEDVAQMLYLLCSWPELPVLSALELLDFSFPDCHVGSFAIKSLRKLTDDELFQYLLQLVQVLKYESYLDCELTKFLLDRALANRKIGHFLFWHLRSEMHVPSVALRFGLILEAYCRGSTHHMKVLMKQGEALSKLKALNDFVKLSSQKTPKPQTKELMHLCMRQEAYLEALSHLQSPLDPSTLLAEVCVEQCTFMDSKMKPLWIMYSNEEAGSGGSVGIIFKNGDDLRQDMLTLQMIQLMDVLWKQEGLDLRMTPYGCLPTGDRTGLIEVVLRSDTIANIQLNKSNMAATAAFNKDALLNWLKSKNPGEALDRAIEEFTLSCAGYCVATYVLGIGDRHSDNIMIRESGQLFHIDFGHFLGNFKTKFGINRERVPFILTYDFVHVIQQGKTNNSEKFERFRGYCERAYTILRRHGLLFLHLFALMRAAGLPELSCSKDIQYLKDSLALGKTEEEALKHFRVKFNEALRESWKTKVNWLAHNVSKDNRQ
Nature of the data set: Inhibition of PI3Kdelta (unknown origin) by ADP-Glo kinase assay.

The test system of data set [3] is Raji. Nature of the data set: Antiproliferative activity against human Raji cells assessed as inhibition of cell growth after 48 hrs by MTT assay. It counts as functional, cell-based. A general note: Formazan colour is commonly taken as a measure of viable cells.
Data set [4] concerns the target T2, Phosphatidylinositol 4,5-bisphosphate 3-kinase catalytic subunit delta isoform (Homo sapiens) (UniProt O00329).
T2 sequence (whole entry): T1 sequence (O00329 whole entry)
Nature of the data set: Inhibition of PI3Kdelta (unknown origin) at 200 nM by ADP-Glo kinase assay relative to control. (In general: ADP-Glo first removes unused ATP, then detects ADP through luciferase.)

In data set [5] the target is Phosphatidylinositol 4,5-bisphosphate 3-kinase catalytic subunit beta isoform (Homo sapiens, UniProt P42338). Nature of the data set: Inhibition of PI3Kbeta (unknown origin).
Sequence of Phosphatidylinositol 4,5-bisphosphate 3-kinase catalytic subunit beta isoform (P42338 whole entry, canonical isoform): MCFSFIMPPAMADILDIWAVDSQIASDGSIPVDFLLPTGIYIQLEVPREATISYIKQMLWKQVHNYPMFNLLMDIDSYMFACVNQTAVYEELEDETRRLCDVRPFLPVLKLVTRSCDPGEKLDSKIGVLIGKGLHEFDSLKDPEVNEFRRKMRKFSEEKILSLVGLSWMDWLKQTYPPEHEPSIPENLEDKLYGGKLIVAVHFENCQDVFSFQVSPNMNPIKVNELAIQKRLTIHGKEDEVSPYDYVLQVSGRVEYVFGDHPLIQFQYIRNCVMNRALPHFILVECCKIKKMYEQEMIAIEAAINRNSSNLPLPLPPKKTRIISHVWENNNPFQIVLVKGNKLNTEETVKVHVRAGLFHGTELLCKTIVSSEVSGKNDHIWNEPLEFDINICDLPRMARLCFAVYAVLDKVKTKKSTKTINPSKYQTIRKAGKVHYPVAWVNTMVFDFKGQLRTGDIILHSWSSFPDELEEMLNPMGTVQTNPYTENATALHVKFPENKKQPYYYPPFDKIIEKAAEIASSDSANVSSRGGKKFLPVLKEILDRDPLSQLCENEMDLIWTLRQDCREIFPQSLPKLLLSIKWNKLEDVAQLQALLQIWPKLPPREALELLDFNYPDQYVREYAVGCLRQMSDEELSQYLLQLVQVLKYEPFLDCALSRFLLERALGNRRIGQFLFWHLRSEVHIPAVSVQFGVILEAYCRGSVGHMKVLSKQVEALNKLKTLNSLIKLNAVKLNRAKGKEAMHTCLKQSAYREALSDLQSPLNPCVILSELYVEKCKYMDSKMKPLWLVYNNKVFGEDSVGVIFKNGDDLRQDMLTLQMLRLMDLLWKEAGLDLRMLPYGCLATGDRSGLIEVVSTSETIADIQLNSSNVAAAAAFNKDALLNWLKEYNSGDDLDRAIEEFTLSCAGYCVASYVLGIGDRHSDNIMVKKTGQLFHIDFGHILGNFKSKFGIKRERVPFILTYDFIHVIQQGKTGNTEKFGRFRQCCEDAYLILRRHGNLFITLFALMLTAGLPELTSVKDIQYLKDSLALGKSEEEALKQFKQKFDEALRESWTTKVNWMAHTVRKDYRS
The subject of data set [6] is Raji. Nature of the data set: Antiproliferative activity against human Raji cells assessed as reduction in cell viability at 10 uM after 24 hrs by MTT assay. It counts as functional.
The test system of data set [7] is Raji. Nature of the data set: Antiproliferative activity against human Raji cells assessed as reduction in cell viability at 10 uM by MTT assay. As to conditions: TDE = time-dependent effect. It counts as functional, cell-based.
Data set [8] relates to Raji. Nature of the data set: Antiproliferative activity against human Raji cells assessed as reduction in cell viability after 24 hrs by MTT assay. It counts as functional, cell-based. To be noted: dose 0.2-15 µM.
Data set [9] in a line: Metabolic stability in human liver microsomes assessed as compound remaining at 1 uM measured up to 45 mins in presence of NADPH by LC/MS analysis. Format: ADME, Microsome. To be noted: 0.75 h. On the technique in general: Microsomes from liver hold many membrane-bound enzymes, among them those of drug oxidation.
Data set [10] has as its target Phosphatidylinositol 4,5-bisphosphate 3-kinase catalytic subunit alpha isoform (Homo sapiens, UniProt P42336). Nature of the data set: Inhibition of PI3Kalpha (unknown origin).
The subject of data set [11] is Raji. Nature of the data set: Inhibition of PI3K/Akt signalling pathway in human Raji cells assessed as reduction in Akt phosphorylation at Ser473 residue after 24 hrs by Western blot analysis. Format: cell-based. To be noted: dose 1-1000 nM.
The species entered for data set [12] is Homo sapiens. Nature of the data set: Selectivity index, ratio of IC50 for PI3Kbeta (unknown origin) to IC50 for PI3Kdelta (unknown origin).
The species entered for data set [13] is Homo sapiens. Nature of the data set: Selectivity index, ratio of IC50 for PI3Kgamma (unknown origin) to IC50 for PI3Kdelta (unknown origin).
Data set [14] can be described thus: Metabolic stability in rat liver microsomes assessed as compound remaining at 1 uM measured up to 45 mins in presence of NADPH by LC/MS analysis. It counts as ADME, Microsome. To be noted: 0.75 h.
The species entered for data set [15] is Homo sapiens. Nature of the data set: Selectivity index, ratio of IC50 for PI3Kalpha (unknown origin) to IC50 for PI3Kdelta (unknown origin).
The subject of data set [16] is Raji. Nature of the data set: Induction of apoptosis in human Raji cells assessed as late apoptotic cells at 5 uM measured after 24 hrs by Annexin V-FITC/PI staining based flow cytometry (reference value: 2.11 %). It counts as functional.
Data set [17] deals with Phosphatidylinositol 4,5-bisphosphate 3-kinase catalytic subunit gamma isoform (Homo sapiens, UniProt P48736). Nature of the data set: Inhibition of PI3Kgamma (unknown origin).
Sequence of Phosphatidylinositol 4,5-bisphosphate 3-kinase catalytic subunit gamma isoform (P48736 whole entry, canonical isoform): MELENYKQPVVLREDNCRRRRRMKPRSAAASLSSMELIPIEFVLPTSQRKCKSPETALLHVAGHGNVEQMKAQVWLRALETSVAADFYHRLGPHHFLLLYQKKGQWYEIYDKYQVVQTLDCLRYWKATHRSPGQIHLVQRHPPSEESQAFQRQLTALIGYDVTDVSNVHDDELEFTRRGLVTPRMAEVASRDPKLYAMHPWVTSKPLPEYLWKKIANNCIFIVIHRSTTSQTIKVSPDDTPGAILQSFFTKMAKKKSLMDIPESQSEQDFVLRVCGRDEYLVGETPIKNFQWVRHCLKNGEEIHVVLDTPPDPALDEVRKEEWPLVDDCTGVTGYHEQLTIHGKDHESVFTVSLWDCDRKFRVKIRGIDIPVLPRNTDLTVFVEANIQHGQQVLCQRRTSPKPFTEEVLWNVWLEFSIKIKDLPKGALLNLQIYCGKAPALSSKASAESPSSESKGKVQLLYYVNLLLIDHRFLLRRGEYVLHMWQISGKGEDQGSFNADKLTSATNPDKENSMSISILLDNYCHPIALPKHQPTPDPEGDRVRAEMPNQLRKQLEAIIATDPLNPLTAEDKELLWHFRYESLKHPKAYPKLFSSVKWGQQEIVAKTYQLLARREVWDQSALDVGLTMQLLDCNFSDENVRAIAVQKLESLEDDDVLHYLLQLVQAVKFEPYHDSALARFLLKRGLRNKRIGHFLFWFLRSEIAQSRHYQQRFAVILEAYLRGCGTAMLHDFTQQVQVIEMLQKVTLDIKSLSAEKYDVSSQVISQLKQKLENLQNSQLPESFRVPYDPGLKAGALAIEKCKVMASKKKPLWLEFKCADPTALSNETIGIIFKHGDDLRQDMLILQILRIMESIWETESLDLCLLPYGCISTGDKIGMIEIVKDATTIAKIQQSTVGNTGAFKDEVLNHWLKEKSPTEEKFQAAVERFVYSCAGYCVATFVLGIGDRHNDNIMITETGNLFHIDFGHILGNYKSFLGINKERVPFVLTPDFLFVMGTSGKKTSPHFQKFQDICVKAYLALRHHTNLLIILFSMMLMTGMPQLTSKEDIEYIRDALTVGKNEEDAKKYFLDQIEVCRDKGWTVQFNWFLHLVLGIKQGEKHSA

SMILES strings stand for the structures. Where only a bound is given, the exact number is not on record here.

Sequence of Phosphatidylinositol 4,5-bisphosphate 3-kinase catalytic subunit alpha isoform (P42336 whole entry, canonical isoform): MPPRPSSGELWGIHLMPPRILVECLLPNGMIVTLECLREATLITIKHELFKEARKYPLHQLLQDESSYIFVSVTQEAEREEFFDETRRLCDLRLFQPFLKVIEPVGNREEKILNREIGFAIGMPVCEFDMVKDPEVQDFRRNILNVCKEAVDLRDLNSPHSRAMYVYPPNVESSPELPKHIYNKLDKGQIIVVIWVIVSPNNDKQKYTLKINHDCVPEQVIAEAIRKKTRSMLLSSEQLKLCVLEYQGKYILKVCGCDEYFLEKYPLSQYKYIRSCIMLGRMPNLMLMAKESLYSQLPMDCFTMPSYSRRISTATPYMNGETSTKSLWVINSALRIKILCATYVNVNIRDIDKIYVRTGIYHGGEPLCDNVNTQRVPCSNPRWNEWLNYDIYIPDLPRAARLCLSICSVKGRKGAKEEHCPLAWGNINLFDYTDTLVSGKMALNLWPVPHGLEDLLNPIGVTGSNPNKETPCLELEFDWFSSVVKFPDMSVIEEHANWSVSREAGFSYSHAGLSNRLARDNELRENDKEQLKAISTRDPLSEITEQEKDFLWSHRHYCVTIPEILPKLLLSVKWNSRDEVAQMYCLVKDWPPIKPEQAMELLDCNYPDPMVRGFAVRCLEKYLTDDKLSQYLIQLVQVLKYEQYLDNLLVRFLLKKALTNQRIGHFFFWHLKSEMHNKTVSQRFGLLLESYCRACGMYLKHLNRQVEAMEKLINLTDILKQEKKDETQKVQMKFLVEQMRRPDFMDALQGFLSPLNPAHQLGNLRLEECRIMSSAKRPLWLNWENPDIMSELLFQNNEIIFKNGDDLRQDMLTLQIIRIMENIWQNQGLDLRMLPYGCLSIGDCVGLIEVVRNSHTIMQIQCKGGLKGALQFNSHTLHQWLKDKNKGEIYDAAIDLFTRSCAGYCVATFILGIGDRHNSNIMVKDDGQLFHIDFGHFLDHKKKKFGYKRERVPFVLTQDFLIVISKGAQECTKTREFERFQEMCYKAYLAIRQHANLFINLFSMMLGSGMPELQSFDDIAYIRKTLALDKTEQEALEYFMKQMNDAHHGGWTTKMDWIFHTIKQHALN

Regarding `CC#CC(=O)Nc1cccc(Nc2ncnc3ccc(-c4cnc5ccccc5c4)cc23)c1`, the half-inhibitory concentration (IC50) (commonly the concentration needed to halve the response being measured) in data set [1] is more than 50 µM; in data set [2] it was 0.41 µM.

`C=CC(=O)Nc1cccc(Oc2ncnc3ccc(-c4cccnc4)cc23)c1`: the values for the IC50 in data set [1] and in [3] were 9.4 µM and 14.8 µM, respectively. Also, the inhibition (usually the change of the read-out against control, counted positive when it falls) in [4] was determined as 41.8%.

Turning to `C=CC(=O)Nc1cccc(Oc2ncnc3ccc(-c4ccc(F)nc4)cc23)c1`, the IC50 in data set [1] and in [3] was 11 µM throughout. Also, the inhibition in data set [4] amounted to 23.4%.

For the compound `C/C=C/C(=O)Nc1cccc(Nc2ncnc3ccc(-c4cnc5ccccc5c4)cc23)c1`, the IC50 stood at 5 µM in [1], 2.7 µM in [3] and 0.129 µM in data set [2].

On to `C=CC(=O)Nc1cccc(Oc2ncnc3ccc(-c4cnc5ccccc5c4)cc23)c1`, for which the results for the IC50 in data set [1] and in [3] were 10.6 µM and 8.6 µM, respectively. The compound further registered an inhibition in [4] of 29.5%.

For the compound `C=CC(=O)N1CCc2ccc(Nc3ncnc4ccc(-c5cnc6ccccc6c5)cc34)cc21`, the half-maximal inhibitory concentration (IC50) in data set [1] was determined as 17 µM; in data set [3] it was 0.9 µM; in data set [2], 0.495 µM.

Consider `C=CC(=O)Nc1cccc(Oc2ncnc3ccc(-c4ccc(Cl)nc4)cc23)c1`, for which the IC50 in data set [1] was determined as 10.1 µM. Further, the inhibition in [4] was determined as 33.1%.

For `C=CC(=O)Nc1cccc(Nc2ncnc3ccc(-c4ccc(Cl)nc4)cc23)c1`, the half-inhibitory concentration (IC50) in data set [3] is 11.6 µM; in [2], 0.104 µM. This compound gave an inhibition in data set [4] of 64.6%.

Consider `C=CC(=O)Nc1cc(Nc2ncnc3ccc(-c4cnc5ccccc5c4)cc23)ccc1C`, for which the IC50 in data set [1] stood at 5.4 µM; in [5], 19.6 µM; in [3], 8.5 µM; in data set [10], 0.561 µM; in [2] it was 0.0275 µM; in data set [17] it was 1.25 µM. The Activity in data set [6] was more than 50%; in [7] it was “Tde”; in data set [8] it was “Dose-dependent effect”; in data set [16], 10.78%. Also, the Stabilty result in data set [9] and in data set [14] was “Unstable” in each case. In addition, in data set [11], the inhibition result was “Dose-dependent effect”. The Ratio IC50 in [12] worked out at 300; in data set [13] it was 45; in data set [15], 20.

With `Cn1c(=O)n(-c2ccc(C(C)(C)C#N)cc2)c2c3cc(-c4cnc5ccccc5c4)ccc3ncc21` [DACTOLISIB], the IC50 was determined as 0.6 µM in [1] and 0.3 µM in data set [3]. In addition, the Activity in data set [16] is 10.24%. Moreover, the inhibition in [4] was determined as 66.3%.

In the case of `C=CC(=O)Nc1cccc(Nc2ncnc3ccc(-c4cnc5ccccc5c4)cc23)c1`, the values for the 50% inhibitory concentration (IC50) in data set [1], in data set [3] and in [2] were more than 50 µM, 3.5 µM and 0.117 µM, respectively.

Turning to `C=CC(=O)Nc1cccc(Nc2ncnc3ccc(-c4ccc(F)nc4)cc23)c1`, the half-maximal inhibitory concentration (IC50) in data set [3] is more than 50 µM. For the same compound, the inhibition in data set [4] came out at 46.6%.

Take `CCC(=O)Nc1cccc(Nc2ncnc3ccc(-c4cnc5ccccc5c4)cc23)c1`: the IC50 in data set [2] was 0.021 µM.
